From ChEMBL document CHEMBL1136712, “Oxyguanidines: application to non-peptidic phenyl-based thrombin inhibitors” (Bioorg Med Chem Lett, 2003)

Experiments:
Homo sapiens = species: Homo sapiens; assay: The apparent permeability coefficient (Papp) was quantitated in the human Caco-2 monolayer assay; assay type: functional
Prothrombin = Prothrombin (Homo sapiens, UniProt P00734); assay: Inhibitory activity against alpha-human thrombin
[1] = Plasma clearance rate by iv administration in dog at a dose of 6 mg/kg; assay type: ADME, organism-based, Canis lupus familiaris; parameters: dose 6 mg/kg, route intravenous
Neutrophil elastase = target: T1, Neutrophil elastase (Homo sapiens, UniProt P08246); assay: In vitro inhibitory activity against serine protease Elastase
T1 sequence (P08246 whole entry): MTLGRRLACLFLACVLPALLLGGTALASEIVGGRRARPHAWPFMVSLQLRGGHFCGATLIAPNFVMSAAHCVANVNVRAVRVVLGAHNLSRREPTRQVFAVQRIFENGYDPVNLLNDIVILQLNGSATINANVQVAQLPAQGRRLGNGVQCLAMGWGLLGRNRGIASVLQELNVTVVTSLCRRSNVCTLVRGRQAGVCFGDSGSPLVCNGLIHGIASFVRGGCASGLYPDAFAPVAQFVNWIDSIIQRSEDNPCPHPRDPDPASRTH

[2] = Disassociation constant was determined; assay type: ADME
[3] = Oral bioavailability in dog; assay type: ADME, organism-based, Canis lupus familiaris; conditions: in vivo
Coagulation factor X = Coagulation factor X (Homo sapiens, UniProt P00742); assay: In vitro inhibitory activity against serine protease FXa
[4] = Half life period by iv administration in dog at a dose of 6 mg/kg; assay type: ADME, organism-based, Canis lupus familiaris; parameters: dose 6 mg/kg, route intravenous; conditions: in vivo
Serine protease 1 = Serine protease 1 (Homo sapiens, UniProt P07477); assay: In vitro inhibitory activity against serine protease Trypsin
Plasminogen = Plasminogen (Homo sapiens, UniProt P00747); assay: In vitro inhibitory activity against serine protease Plasmin
[5] = In vitro metabolic potential in human liver microsomes; assay type: ADME, Microsome
Rattus norvegicus = species: Rattus norvegicus; assay: In vitro metabolic potential in rat liver microsomes; assay type: ADME
Canis familiaris = species: Canis familiaris; assay: In vitro metabolic potential in dog liver microsomes; assay type: ADME, Canis lupus familiaris
Mus musculus = species: Mus musculus; assay: In vitro metabolic potential in mouse liver microsomes; assay type: ADME
Chymotrypsinogen B = Chymotrypsinogen B (Homo sapiens, UniProt P17538); assay: In vitro inhibitory activity against serine protease Chymotrypsin
Chymotrypsinogen B, sequence (P17538 34-164 limits assumed, other chains not shown): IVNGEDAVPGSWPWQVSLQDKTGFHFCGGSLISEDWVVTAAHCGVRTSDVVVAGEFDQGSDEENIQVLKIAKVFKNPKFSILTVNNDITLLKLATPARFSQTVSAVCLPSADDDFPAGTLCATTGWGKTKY
Chymotrypsinogen B, sequence (P17538 167-263 limits assumed, other chains not shown): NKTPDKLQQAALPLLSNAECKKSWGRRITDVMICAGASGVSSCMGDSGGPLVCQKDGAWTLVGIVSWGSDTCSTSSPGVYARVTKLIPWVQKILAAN

Coagulation factor X, sequence (P00742 41-179 limits assumed): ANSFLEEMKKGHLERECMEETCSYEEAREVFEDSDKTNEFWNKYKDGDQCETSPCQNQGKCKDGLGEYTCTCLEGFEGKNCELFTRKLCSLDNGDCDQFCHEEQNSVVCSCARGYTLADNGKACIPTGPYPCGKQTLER
Coagulation factor X, sequence (P00742 235-488 limits assumed): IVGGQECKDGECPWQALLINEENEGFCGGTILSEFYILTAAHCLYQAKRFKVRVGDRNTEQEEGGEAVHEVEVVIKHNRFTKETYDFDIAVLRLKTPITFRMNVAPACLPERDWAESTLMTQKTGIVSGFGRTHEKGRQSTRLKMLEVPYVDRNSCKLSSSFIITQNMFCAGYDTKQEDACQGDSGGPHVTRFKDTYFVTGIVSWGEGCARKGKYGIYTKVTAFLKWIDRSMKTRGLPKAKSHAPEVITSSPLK
Serine protease 1, sequence (P07477 whole entry): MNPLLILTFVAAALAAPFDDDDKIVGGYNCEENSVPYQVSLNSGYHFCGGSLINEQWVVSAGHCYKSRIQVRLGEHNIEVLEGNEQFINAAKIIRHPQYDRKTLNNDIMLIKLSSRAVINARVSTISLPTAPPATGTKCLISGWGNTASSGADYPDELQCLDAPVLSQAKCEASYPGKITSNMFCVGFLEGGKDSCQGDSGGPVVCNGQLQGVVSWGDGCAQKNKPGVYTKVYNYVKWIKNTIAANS
Plasminogen, sequence (P00747 97-580 limits assumed): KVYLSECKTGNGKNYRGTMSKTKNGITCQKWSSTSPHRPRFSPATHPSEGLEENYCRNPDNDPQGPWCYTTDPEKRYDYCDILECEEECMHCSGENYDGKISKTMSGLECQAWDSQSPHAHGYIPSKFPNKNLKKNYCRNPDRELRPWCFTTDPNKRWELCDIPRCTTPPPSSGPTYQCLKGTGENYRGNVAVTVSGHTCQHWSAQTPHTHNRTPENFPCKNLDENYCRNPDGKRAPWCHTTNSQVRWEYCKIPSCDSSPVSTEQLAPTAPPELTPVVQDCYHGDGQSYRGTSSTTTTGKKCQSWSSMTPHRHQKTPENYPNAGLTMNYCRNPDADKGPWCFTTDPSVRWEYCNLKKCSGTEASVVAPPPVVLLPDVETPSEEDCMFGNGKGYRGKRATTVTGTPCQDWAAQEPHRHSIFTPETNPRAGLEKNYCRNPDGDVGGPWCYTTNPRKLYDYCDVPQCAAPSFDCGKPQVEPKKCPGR
Plasminogen, sequence (P00747 581-810 limits assumed): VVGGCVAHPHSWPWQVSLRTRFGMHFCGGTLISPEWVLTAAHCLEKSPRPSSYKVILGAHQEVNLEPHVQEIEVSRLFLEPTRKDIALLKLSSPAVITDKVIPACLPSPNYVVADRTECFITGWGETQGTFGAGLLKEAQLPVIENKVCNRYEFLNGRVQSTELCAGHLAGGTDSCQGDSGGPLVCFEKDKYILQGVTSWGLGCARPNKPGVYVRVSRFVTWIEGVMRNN

| Ki (Prothrombin) | Compound | further results |
| --- | --- | --- |
| – | Cc1cc(OCCCON=C(N)N)cc(OS(=O)(=O)c2ccccc2S(C)(=O)=O)c1 | Papp (Homo sapiens): 2.4 ×10⁻⁶ cm/s |
| 749 nM | Cc1cc(OCCCONC(=N)N)cc(OS(=O)(=O)c2ccc(S(C)(=O)=O)cc2S(C)(=O)=O)c1 | – |
| 9.9 nM | Cc1cc(OCCCONC(=N)N)cc(OS(=O)(=O)c2ccccc2C#N)c1 | – |
| 204 nM | Cc1cc(OCCCON=C(N)N)cc(OS(=O)(=O)c2cccc(S(C)(=O)=O)c2)c1 | – |
| 102 nM | Cc1cc(OCCCONC(=N)N)cc(OS(=O)(=O)c2ccc3c(c2)S(=O)(=O)CC3)c1 | – |
| 49.3 nM | CS(=O)(=O)c1ccccc1S(=O)(=O)Oc1cc(F)cc(OCC2(CON=C(N)N)CC2)c1 | – |
| 403 nM | CS(=O)(=O)c1ccccc1S(=O)(=O)Oc1cc(CO)cc(OCC2(CON=C(N)N)CC2)c1 | – |
| 32.4 nM | C=C(CONC(=N)N)COc1cc(C)cc(OS(=O)(=O)c2ccccc2S(C)(=O)=O)c1 | – |
| 6.7 nM | COc1ccccc1S(=O)(=O)Oc1cc(C)cc(OCCCONC(=N)N)c1 | – |
| 39.4 nM | CS(=O)(=O)c1ccccc1S(=O)(=O)Oc1cc(Cl)cc(OCCCON=C(N)N)c1 | – |
| 4.8 nM | Cc1cc(OCCCONC(=N)N)cc(OS(=O)(=O)c2ccccc2S(=O)(=O)c2ccccc2)c1 | – |
| 34.6 nM | COc1cc(OCCCONC(=N)N)cc(OS(=O)(=O)c2ccccc2S(C)(=O)=O)c1 | – |
| 29.7 nM | CCc1cc(OCCCONC(=N)N)cc(OS(=O)(=O)c2ccccc2S(C)(=O)=O)c1 | – |
| 31 nM | Cc1cc(OCCCON=C(N)N)cc(OS(=O)(=O)c2cccc3c2NCCC3)c1 | – |
| 137 nM | Cc1cc(OCC(O)CON=C(N)N)cc(OS(=O)(=O)c2ccccc2S(C)(=O)=O)c1 (stereo not drawn) | – |
| 6.7 nM | Cc1cc(OCCCONC(=N)N)cc(OS(=O)(=O)c2cccc3cccnc23)c1 | – |
| – | Cc1cc(OCCCONC(=N)N)cc(OS(=O)(=O)c2ccccc2S(C)(=O)=O)c1 | clearance [1]: 6.9 mL/min/kg; Ki (Neutrophil elastase): > 22000 nM; pKa [2]: 7.05; bioavailability [3]: 95%; Ki (Coagulation factor X): > 22000 nM; half-life [4]: 7.3 h; Ki (Serine protease 1): > 22000 nM; Ki (Plasminogen): > 22000 nM; Microsomal stability [5]: 50.4 pg min-1 (mg of protein)-1; Microsomal stability (Rattus norvegicus): 69.5 pg min-1 (mg of protein)-1; Microsomal stability (Canis familiaris): 21.1 pg min-1 (mg of protein)-1; Microsomal stability (Mus musculus): 30.8 pg min-1 (mg of protein)-1; Ki (Chymotrypsinogen B): > 22000 nM |
| 364 nM | Cc1cc(OCC(F)(F)CON=C(N)N)cc(OS(=O)(=O)c2ccccc2S(C)(=O)=O)c1 | – |
| 114 nM | Cc1cc(OCC(F)CON=C(N)N)cc(OS(=O)(=O)c2ccccc2S(C)(=O)=O)c1 (stereo not drawn) | – |
| 86.6 nM | Cc1cc(OCCCON=C(N)N)cc(OS(=O)(=O)c2ccccc2N)c1 | – |

| Compound | Ki (Prothrombin) | further results |
| --- | --- | --- |
| Cc1cc(OCCCON=C(N)N)cc(OS(=O)(=O)c2cccc3cnccc23)c1 | 13.2 nM | – |
